From patent publication US12660819B2, “Herbicidal derivatives” (SYNGENTA CROP PROTECTION AG, priority 2020, dated 2026)

Assays:
Type in all cases: in vivo
[1] = test system: Amaranthus retoflexus (AMARE); test: Pre-emergence Test (glasshouse, percentage damage to the plant); details: 1000 g/ha unless otherwise stated, five-point scale
[2] = test system: Setaria faberi (SETFA); test: as above; details: 1000 g/ha unless otherwise stated, five-point scale
[3] = test system: Echinochloa crus-galli (ECHCG); test: as above; details: 1000 g/ha unless otherwise stated, five-point scale
[4] = test system: Ipomoea hederacea (IPOHE); test: as above; details: 1000 g/ha unless otherwise stated, five-point scale
[5] = test system: Abutilon theophrasti (ABUTH); test: as above; details: 1000 g/ha unless otherwise stated, five-point scale
[6] = test system: Zea mays (ZEAMX); test: as above; details: 1000 g/ha unless otherwise stated, five-point scale
[7] = test system: Ipomoea hederacea (IPOHE); test: Post-emergence Test (glasshouse, percentage damage to the plant); details: post-emergence spray, 1000 g/ha unless otherwise stated, evaluated after 13 days
Method: (§1) Seeds of a variety of test species are sown in standard soil in pots (Amaranthus retoflexus (AMARE), Solanum nigrum (SOLNI), Setaria faberi (SETFA), Lolium perenne (LOLPE), Echinochloa crus-galli (ECHCG), Ipomoea hederacea (IPOHE), Abutilon theophrasti (ABUTH), Zea mays (ZEAMX), Amaranthus palmeri (AMAPA). After 8 days cultivation under controlled conditions in a glasshouse (at 24° C./16° C., day/night; 14 hours light; 65% humidity), the plants are sprayed with an aqueous spray solution derived from the formulation of the technical active ingredient in acetone/water (50:50) solution containing 0.5% Tween 20 (polyoxyethelyene sorbitan monolaurate, CAS RN 9005-64-5). Compounds are applied at 1000 g/ha unless otherwise stated. The test plants are then grown in a glasshouse under controlled conditions in a glasshouse (at 24° C./16° C., day/night; 14 hours light; 65% humidity) and watered twice daily. After 13 days the test is evaluated for the percentage damage caused to the plant. The biological activities are shown in the following table on a five-point scale (5=81-100%; 4=61-80%; 3=41-60%; 2=21-40%; 1=0-20%).

[8] = test system: Zea mays (ZEAMX); test: as above; details: post-emergence spray, 1000 g/ha unless otherwise stated, evaluated after 13 days
Method: as §1

[9] = test system: Amaranthus retoflexus (AMARE); test: as above; details: post-emergence spray, 1000 g/ha unless otherwise stated, evaluated after 13 days
Method: as §1

[10] = test system: Setaria faberi (SETFA); test: as above; details: post-emergence spray, 1000 g/ha unless otherwise stated, evaluated after 13 days
Method: as §1

SMILES: CCn1c(C)c(-c2ccc(Cl)cc2OC)c(=O)c(C(=O)O)c1-c1ccc(Cl)cc1 [Compound 184, 5-(4-chloro-2-methoxy-phenyl)-2-(4-chlorophenyl)-1-ethyl-6-methyl-4-oxo-pyridine-3-carboxylic acid]
- percentage damage to the plant, AMARE [1]: 1 (1=0-20%)
- percentage damage to the plant, SETFA [2]: 1 (1=0-20%)
- percentage damage to the plant, ECHCG [3]: 1 (1=0-20%)
- percentage damage to the plant, IPOHE [4]: 0
- percentage damage to the plant, ABUTH [5]: 1 (1=0-20%)
- percentage damage to the plant, ZEAMX [6]: 0
- Post-emergence Test IPOHE, percentage damage to the plant (five-point scale) [7]: 3 (3=41-60%)
- Post-emergence Test ZEAMX, percentage damage to the plant (five-point scale) [8]: 3 (3=41-60%)
- Post-emergence Test AMARE, percentage damage to the plant (five-point scale) [9]: 4 (4=61-80%)
- Post-emergence Test SETFA, percentage damage to the plant (five-point scale) [10]: 5 (5=81-100%)

SMILES: CCn1c(C)c(-c2cc(Cl)ccc2Cl)c(=O)c(C(=O)O)c1-c1ccc(Cl)cc1 [Compound 185, 2-(4-chlorophenyl)-5-(2,5-dichlorophenyl)-1-ethyl-6-methyl-4-oxo-pyridine-3-carboxylic acid]
- percentage damage to the plant, AMARE [1]: 0
- percentage damage to the plant, SETFA [2]: 0
- percentage damage to the plant, ECHCG [3]: 0
- percentage damage to the plant, IPOHE [4]: 0
- percentage damage to the plant, ABUTH [5]: 0
- percentage damage to the plant, ZEAMX [6]: 0
- Post-emergence Test IPOHE, percentage damage to the plant (five-point scale) [7]: 2 (2=21-40%)
- Post-emergence Test ZEAMX, percentage damage to the plant (five-point scale) [8]: 1 (1=0-20%)
- Post-emergence Test AMARE, percentage damage to the plant (five-point scale) [9]: 3 (3=41-60%)
- Post-emergence Test SETFA, percentage damage to the plant (five-point scale) [10]: 3 (3=41-60%)

SMILES: CCn1c(C)c(-c2ccc(F)cc2OC)c(=O)c(C(=O)O)c1-c1ccc(Cl)cc1 [Compound 186, 2-(4-chlorophenyl)-1-ethyl-5-(4-fluoro-2-methoxy-phenyl)-6-methyl-4-oxo-pyridine-3-carboxylic acid]
- percentage damage to the plant, AMARE [1]: 1 (1=0-20%)
- percentage damage to the plant, SETFA [2]: 2 (2=21-40%)
- percentage damage to the plant, ECHCG [3]: 1 (1=0-20%)
- percentage damage to the plant, IPOHE [4]: 1 (1=0-20%)
- percentage damage to the plant, ABUTH [5]: 3 (3=41-60%)
- percentage damage to the plant, ZEAMX [6]: 0
- Post-emergence Test IPOHE, percentage damage to the plant (five-point scale) [7]: 2 (2=21-40%)
- Post-emergence Test ZEAMX, percentage damage to the plant (five-point scale) [8]: 2 (2=21-40%)
- Post-emergence Test AMARE, percentage damage to the plant (five-point scale) [9]: 1 (1=0-20%)
- Post-emergence Test SETFA, percentage damage to the plant (five-point scale) [10]: 3 (3=41-60%)

SMILES: CCn1c(C)c(-c2ccc(C#N)c(C(F)(F)F)c2)c(=O)c(C(=O)O)c1-c1ccc(Cl)cc1 [Compound 187, 2-(4-chlorophenyl)-5-[4-cyano-3-(trifluoromethyl)phenyl]-1-ethyl-6-methyl-4-oxo-pyridine-3-carboxylic acid]
- percentage damage to the plant, AMARE [1]: 1 (1=0-20%)
- percentage damage to the plant, SETFA [2]: 2 (2=21-40%)
- percentage damage to the plant, ECHCG [3]: 1 (1=0-20%)
- percentage damage to the plant, IPOHE [4]: 2 (2=21-40%)
- percentage damage to the plant, ABUTH [5]: 3 (3=41-60%)
- percentage damage to the plant, ZEAMX [6]: 1 (1=0-20%)
- Post-emergence Test IPOHE, percentage damage to the plant (five-point scale) [7]: 3 (3=41-60%)
- Post-emergence Test ZEAMX, percentage damage to the plant (five-point scale) [8]: 2 (2=21-40%)
- Post-emergence Test AMARE, percentage damage to the plant (five-point scale) [9]: 3 (3=41-60%)
- Post-emergence Test SETFA, percentage damage to the plant (five-point scale) [10]: 2 (2=21-40%)

SMILES: CCn1c(C)c(-c2cc(Cl)cc(Cl)c2)c(=O)c(C(=O)O)c1-c1ccc(Cl)cc1 [Compound 188, 2-(4-chlorophenyl)-5-(3,5-dichlorophenyl)-1-ethyl-6-methyl-4-oxo-pyridine-3-carboxylic acid]
- percentage damage to the plant, AMARE [1]: 0
- percentage damage to the plant, SETFA [2]: 0
- percentage damage to the plant, ECHCG [3]: 0
- percentage damage to the plant, IPOHE [4]: 0
- percentage damage to the plant, ABUTH [5]: 0
- percentage damage to the plant, ZEAMX [6]: 0
- Post-emergence Test IPOHE, percentage damage to the plant (five-point scale) [7]: 1 (1=0-20%)
- Post-emergence Test ZEAMX, percentage damage to the plant (five-point scale) [8]: 1 (1=0-20%)
- Post-emergence Test AMARE, percentage damage to the plant (five-point scale) [9]: 0
- Post-emergence Test SETFA, percentage damage to the plant (five-point scale) [10]: 0

SMILES: CCn1c(C)c(-c2cc(OC)ccc2F)c(=O)c(C(=O)O)c1-c1ccc(Cl)cc1 [Compound 189, 2-(4-chlorophenyl)-1-ethyl-5-(2-fluoro-5-methoxy-phenyl)-6-methyl-4-oxo-pyridine-3-carboxylic acid]
- percentage damage to the plant, AMARE [1]: 1 (1=0-20%)
- percentage damage to the plant, SETFA [2]: 2 (2=21-40%)
- percentage damage to the plant, ECHCG [3]: 2 (2=21-40%)
- percentage damage to the plant, IPOHE [4]: 1 (1=0-20%)
- percentage damage to the plant, ABUTH [5]: 3 (3=41-60%)
- percentage damage to the plant, ZEAMX [6]: 0
- Post-emergence Test IPOHE, percentage damage to the plant (five-point scale) [7]: 1 (1=0-20%)
- Post-emergence Test ZEAMX, percentage damage to the plant (five-point scale) [8]: 1 (1=0-20%)
- Post-emergence Test AMARE, percentage damage to the plant (five-point scale) [9]: 2 (2=21-40%)
- Post-emergence Test SETFA, percentage damage to the plant (five-point scale) [10]: 2 (2=21-40%)

SMILES: CCn1c(C)c(-c2cc(F)cc(C#N)c2)c(=O)c(C(=O)O)c1-c1ccc(Cl)cc1 [Compound 190, 2-(4-chlorophenyl)-5-(3-cyano-5-fluoro-phenyl)-1-ethyl-6-methyl-4-oxo-pyridine-3-carboxylic acid]
- percentage damage to the plant, AMARE [1]: 1 (1=0-20%)
- percentage damage to the plant, SETFA [2]: 2 (2=21-40%)
- percentage damage to the plant, ECHCG [3]: 2 (2=21-40%)
- percentage damage to the plant, IPOHE [4]: 1 (1=0-20%)
- percentage damage to the plant, ABUTH [5]: 0
- percentage damage to the plant, ZEAMX [6]: 2 (2=21-40%)
- Post-emergence Test IPOHE, percentage damage to the plant (five-point scale) [7]: 1 (1=0-20%)
- Post-emergence Test ZEAMX, percentage damage to the plant (five-point scale) [8]: 1 (1=0-20%)
- Post-emergence Test AMARE, percentage damage to the plant (five-point scale) [9]: 1 (1=0-20%)
- Post-emergence Test SETFA, percentage damage to the plant (five-point scale) [10]: 2 (2=21-40%)

SMILES: CCn1c(C)c(-c2ccc(Cl)cc2Cl)c(=O)c(C(=O)O)c1-c1ccc(Cl)cc1 [Compound 193, 2-(4-chlorophenyl)-5-(2,4-dichlorophenyl)-1-ethyl-6-methyl-4-oxo-pyridine-3-carboxylic acid]
- percentage damage to the plant, AMARE [1]: 2 (2=21-40%)
- percentage damage to the plant, SETFA [2]: 2 (2=21-40%)
- percentage damage to the plant, ECHCG [3]: 1 (1=0-20%)
- percentage damage to the plant, IPOHE [4]: 0
- percentage damage to the plant, ABUTH [5]: 2 (2=21-40%)
- percentage damage to the plant, ZEAMX [6]: 1 (1=0-20%)
- Post-emergence Test IPOHE, percentage damage to the plant (five-point scale) [7]: 3 (3=41-60%)
- Post-emergence Test ZEAMX, percentage damage to the plant (five-point scale) [8]: 2 (2=21-40%)
- Post-emergence Test AMARE, percentage damage to the plant (five-point scale) [9]: 5 (5=81-100%)
- Post-emergence Test SETFA, percentage damage to the plant (five-point scale) [10]: 4 (4=61-80%)

SMILES: CCn1c(C)c(-c2ccc([N+](=O)[O-])cc2)c(=O)c(C(=O)O)c1-c1ccc(Cl)cc1 [Compound 194, 2-(4-chlorophenyl)-1-ethyl-6-methyl-5-(4-nitrophenyl)-4-oxo-pyridine-3-carboxylic acid]
- percentage damage to the plant, AMARE [1]: 0
- percentage damage to the plant, SETFA [2]: 0
- percentage damage to the plant, ECHCG [3]: 0
- percentage damage to the plant, IPOHE [4]: 0
- percentage damage to the plant, ABUTH [5]: 0
- percentage damage to the plant, ZEAMX [6]: 2 (2=21-40%)
- Post-emergence Test IPOHE, percentage damage to the plant (five-point scale) [7]: 0
- Post-emergence Test ZEAMX, percentage damage to the plant (five-point scale) [8]: 1 (1=0-20%)
- Post-emergence Test AMARE, percentage damage to the plant (five-point scale) [9]: 0
- Post-emergence Test SETFA, percentage damage to the plant (five-point scale) [10]: 2 (2=21-40%)
